In the NIST ThermoML archive (doi:10.1021/je800635g):
Numbers after ± are expanded uncertainties.

Assay: xn = mol fraction of the nth substance listed
Conditions: Liquid, Falling or rolling sphere viscometry

Cc1ccc(C)cc1 [1,4-dimethylbenzene] + CC(=O)O
viscosity [mPa·s]
Conditions | x1 = 0.1001 | x1 = 0.1997 | x1 = 0.3001 | x1 = 0.3997 | x1 = 0.5 | x1 = 0.6002 | x1 = 0.6988 | x1 = 0.7994 | x1 = 0.8994
373.15 K, 3200 kPa | – | – | – | – | 0.315 ± 0.003 | 0.309 ± 0.003 | 0.307 ± 0.003 | 0.305 ± 0.003 | 0.308 ± 0.003
393.15 K, 800 kPa | 0.34 ± 0.004 | 0.294 ± 0.003 | 0.269 ± 0.003 | 0.252 ± 0.003 | 0.253 ± 0.003 | 0.249 ± 0.003 | 0.256 ± 0.003 | 0.254 ± 0.003 | 0.254 ± 0.003
393.15 K, 1600 kPa | 0.345 ± 0.004 | 0.3 ± 0.003 | 0.275 ± 0.003 | 0.258 ± 0.003 | 0.258 ± 0.003 | 0.254 ± 0.003 | 0.261 ± 0.003 | 0.258 ± 0.003 | 0.259 ± 0.003
393.15 K, 2400 kPa | 0.352 ± 0.004 | 0.306 ± 0.003 | 0.281 ± 0.003 | 0.263 ± 0.003 | 0.264 ± 0.003 | 0.26 ± 0.003 | 0.266 ± 0.003 | 0.264 ± 0.003 | 0.265 ± 0.003
393.15 K, 3200 kPa | 0.358 ± 0.004 | 0.313 ± 0.003 | 0.287 ± 0.003 | 0.269 ± 0.003 | 0.27 ± 0.003 | 0.265 ± 0.003 | 0.272 ± 0.003 | 0.27 ± 0.003 | 0.27 ± 0.003
413.15 K, 800 kPa | 0.294 ± 0.003 | 0.255 ± 0.003 | 0.237 ± 0.003 | 0.221 ± 0.002 | 0.217 ± 0.002 | 0.218 ± 0.002 | 0.222 ± 0.002 | 0.219 ± 0.002 | 0.22 ± 0.002
413.15 K, 1600 kPa | 0.3 ± 0.003 | 0.26 ± 0.003 | 0.243 ± 0.003 | 0.227 ± 0.002 | 0.217 ± 0.002 | 0.223 ± 0.002 | 0.227 ± 0.002 | 0.225 ± 0.002 | 0.225 ± 0.002
413.15 K, 2400 kPa | 0.307 ± 0.003 | 0.265 ± 0.003 | 0.249 ± 0.003 | 0.233 ± 0.003 | 0.228 ± 0.002 | 0.229 ± 0.002 | 0.232 ± 0.003 | 0.23 ± 0.002 | 0.231 ± 0.002
413.15 K, 3200 kPa | 0.313 ± 0.003 | 0.271 ± 0.003 | 0.255 ± 0.003 | 0.239 ± 0.003 | 0.233 ± 0.003 | 0.234 ± 0.003 | 0.237 ± 0.003 | 0.235 ± 0.003 | 0.236 ± 0.003
433.15 K, 800 kPa | – | 0.223 ± 0.002 | 0.208 ± 0.002 | 0.196 ± 0.002 | 0.195 ± 0.002 | 0.194 ± 0.002 | 0.194 ± 0.002 | 0.191 ± 0.002 | 0.194 ± 0.002
433.15 K, 1600 kPa | 0.26 ± 0.003 | 0.228 ± 0.002 | 0.213 ± 0.002 | 0.202 ± 0.002 | 0.201 ± 0.002 | 0.199 ± 0.002 | 0.199 ± 0.002 | 0.197 ± 0.002 | 0.199 ± 0.002
433.15 K, 2400 kPa | 0.267 ± 0.003 | 0.233 ± 0.003 | 0.219 ± 0.002 | 0.208 ± 0.002 | 0.206 ± 0.002 | 0.205 ± 0.002 | 0.204 ± 0.002 | 0.202 ± 0.002 | 0.204 ± 0.002
433.15 K, 3200 kPa | 0.273 ± 0.003 | 0.239 ± 0.003 | 0.226 ± 0.002 | 0.213 ± 0.002 | 0.212 ± 0.002 | 0.21 ± 0.002 | 0.209 ± 0.002 | 0.208 ± 0.002 | 0.209 ± 0.002
453.15 K, 800 kPa | 0.221 ± 0.002 | 0.196 ± 0.002 | 0.181 ± 0.002 | 0.177 ± 0.002 | 0.174 ± 0.002 | 0.173 ± 0.002 | 0.173 ± 0.002 | 0.17 ± 0.002 | 0.17 ± 0.002
453.15 K, 1600 kPa | 0.227 ± 0.002 | 0.201 ± 0.002 | 0.186 ± 0.002 | 0.183 ± 0.002 | 0.18 ± 0.002 | 0.179 ± 0.002 | 0.178 ± 0.002 | 0.176 ± 0.002 | 0.175 ± 0.002
453.15 K, 2400 kPa | 0.233 ± 0.003 | 0.206 ± 0.002 | 0.192 ± 0.002 | 0.188 ± 0.002 | 0.185 ± 0.002 | 0.184 ± 0.002 | 0.183 ± 0.002 | 0.181 ± 0.002 | 0.18 ± 0.002
453.15 K, 3200 kPa | 0.24 ± 0.003 | 0.211 ± 0.002 | 0.198 ± 0.002 | 0.194 ± 0.002 | 0.191 ± 0.002 | 0.189 ± 0.002 | 0.188 ± 0.002 | 0.187 ± 0.002 | 0.184 ± 0.002
473.15 K, 1600 kPa | 0.19 ± 0.002 | 0.17 ± 0.002 | 0.162 ± 0.002 | 0.162 ± 0.002 | 0.161 ± 0.002 | 0.16 ± 0.002 | 0.16 ± 0.002 | 0.157 ± 0.002 | 0.159 ± 0.002
473.15 K, 2400 kPa | 0.196 ± 0.002 | 0.175 ± 0.002 | 0.168 ± 0.002 | 0.167 ± 0.002 | 0.166 ± 0.002 | 0.165 ± 0.002 | 0.164 ± 0.002 | 0.162 ± 0.002 | 0.164 ± 0.002
473.15 K, 3200 kPa | 0.202 ± 0.002 | 0.181 ± 0.002 | 0.173 ± 0.002 | 0.173 ± 0.002 | 0.171 ± 0.002 | 0.17 ± 0.002 | 0.169 ± 0.002 | 0.168 ± 0.002 | 0.168 ± 0.002
